The test system of assay [1] is CAR T cells. The experiment in a line: CAR T cell expansion assay (live cell analysis) in coculture with Eμ-myc cells with or without macrophages. The assay is classed as cell-based, mouse. The settings on record: over 48 h. The procedure:
To explore how M2-like macrophages may impact the cellular function of CAR T cells, a syngeneic coculture system was employed (FIG. 2A). […] The BMDMs were differentiated into M2-like macrophages (imMac) by culturing with IL-4 and IL-10 or with media alone without further differentiation to utilize as unpolarized macrophage controls (unMac). The mCherry reporter served as a marker for CAR transduction and CAR T cell expansion.
The expansion of CAR T cells was determined by an Incucyte S3 live cell analysis system (Essen Bioscience). 2×10^4 Eμ-myc cells and 2×10^4 CAR T cells were cocultured in the absence or presence of 0.5×10^4 macrophages (CAR T:Eμ-myc cell:Macrophage=1:1:0.25, unless otherwise indicated in the figure legends) in a 96-well black-walled clear bottom plate in 120 μl of media. Cell images were captured at 4× magnification. The expansion index was calculated by dividing the total integrated red intensity (RCU×μm^2/mm^2) at each time point by the first time point.

In another assay the test system is Eμ-myc B cell tumors. The experiment in a line: Survival of Eμ-myc tumor-bearing Rag1−/− mice treated with CAR T cells. The assay is classed as in vivo, mouse. The settings on record: combination of 1928z CAR T cells and L-NIL (20 mg/kg i.p. once per day) compared to 1928z CAR T cells alone. As to the method:
Six-to 10-week-old Rag1/-mice of both sexes were intraperitoneally (i.p.) injected with 3×10^6 Eμ-myc-GFP-FFL cells to generate tumors localized in peritoneal cavity. Tumor engraftment was verified by bioluminescence imaging one day before CAR T cell transfer. Mice were randomized to different treatment groups without differences in pre-treatment tumor load. Seven days after tumor cell inoculation, mice were injected i.p. with 5×10^6 CAR T cells in 300 μl PBS. For survival experiments, L-NIL or PBS was administered i.p. once per day at 20 mg/kg body weight starting on the same day of tumor cell injection. […] Bioluminescence imaging was performed by IVIS Lumina III In Vivo Imaging System (PerkinElmer) with Living Image software (PerkinElmer).

The next assay has as its system Eμ-myc cells. The experiment in a line: Luciferase-based killing assay with CAR T cells isolated from initial coculture. The format is cell-based, mouse. To be noted: for ability of CAR T cells to kill tumor cells: 48 h initial coculture with Eμ-myc cells in presence of NCX-4016 (100 µM) or PNT (50 µM), no macrophages, lysis at 24 h. As to the method: (§1) 1×10^6 CAR T cells and 1×10^6 Eμ-myc-GFP-FFL cells were cocultured in the absence or presence of 0.25×10^6 macrophages in a 6-well plate in 6 ml of media for 48 h. After initial coculture, cells were harvested, and T cells were isolated using Mouse T Cell Isolation Kit ([…] Technologies). […] Percentage of CAR-expressing T cells was determined with flow cytometry and were subsequently used for downstream assays.
2×10^4 Eu-ALL-GFP-FFL cells were cocultured with CAR T cells at different effector-to-target ratios in a 96-well white-walled plate in 100 μl of media. Following incubation, 100 μl luciferase substrate reagent (ONE-Glo Luciferase assay system, Promega) was added to each well. Target cells alone were plated at the same cell density to determine maximum luciferase signals. Emitted luminescence was detected in the microplate reader (GloMax, Promega). Percent lysis was determined as (1-sample signal/maximum signal)×100.

A further assay deals with IFN-γ and TNF-α. The experiment in a line: Cytokine secretion assay with CAR T cells isolated from initial coculture. The assay is classed as cell-based, mouse. To be noted: for secretion of effector cytokines IFN-γ and TNF-α by CAR T cells: 48 h initial coculture with Eμ-myc cells in presence of NCX-4016 (100 µM) or PNT (50 μM), no macrophages, supernatants at 24 h. As to the method:
as §1
2×10^4 Eμ-myc cells were cocultured with 2×10^4 CAR T cells in a 96-well plate in a total volume of 100 μl of media. Supernatants were collected and analyzed for IFN-γ and TNF-α secretion using Ella automated immunoassay system (Proteinsimple Bio-techne) according to manufacturer's instructions.

Assay [2] concerns CAR T cells. Nature of the assay: Seahorse assay (ECAR, OCR) on CAR T cells from coculture. The assay is classed as cell-based, mouse. The settings on record: 48 h coculture in the presence of imMac. As to the method: (§2) 1×10^6 CAR T cells and 1×10^6 Eμ-myc-GFP-FFL cells were cocultured in the absence or presence of 0.25×10^6 macrophages in a 6-well plate in 6 ml of media for 48 h. After initial coculture, cells were harvested, and T cells were isolated using Mouse T Cell Isolation Kit (STEMCELL Technologies). T cell purity was 100% as tested by flow cytometry. Percentage of CAR-expressing T cells was determined with flow cytometry and were subsequently used for downstream assays.
ECAR and OCR were measured using a Seahorse Extracellular Flux Analyzer (Agilent Technologies). XF96 microplates were coated with CellTak a day before analyses. To assay glycolytic function, T cells were resuspended in glucose-free XF medium supplied with 2 mM L-glutamine and 1 mM sodium pyruvate and seeded at 2×10^5 cells in 180 μl per well. Following incubation in a CO2-free incubator for 60 min at 37° C. for pH stabilization, ECAR was measured in response to 10 mM glucose, 1 μM oligomycin, and 50 mM 2-deoxyglucose. To assay mitochondrial function, T cells were resuspended in XF medium supplied with 2 mM L-glutamine, 1 mM sodium pyruvate, and 10 mM glucose and seeded at 2×10^5 cells in 180 μl per well. Following incubation in a CO2-free incubator for 60 min at 37° C. for pH stabilization, OCR was measured in response to 1 μM oligomycin, 1 μM FCCP, and 0.5 µM rotenone and antimycin.

The test system of assay [3] is CAR T cells. Nature of the assay: Global metabolomics on CAR T cells from coculture. The settings on record: 48 h coculture with imMac. The assay is classed as cell-based, mouse. As to the method:
as §2
Global metabolomic profiling and 13C6-labeled glucose tracing of CAR T cells, 1×10^6 T cells were resuspended in either RPMI-1640 medium (RPMI+10% heat-inactivated dialyzed FBS) or 13C6-glucose substituted RPMI-1640 medium (glucose-free RPMI+10% heat-inactivated dialyzed FBS+11.1 mM ^13C6-glucose). After 4 h incubation, cells were collected, rapidly centrifuged (17,000×g, 10 sec, room temperature), and medium was removed. T cells were washed with 1 ml of ice-cold PBS, and metabolites were extracted with 300 μl of 80% methanol via incubation at −80° C. for 15 min. Samples were centrifuged (17,000×g, 20 min, 4° C.), and supernatants were transferred to an Eppendorf tube and dried in a vacuum evaporator overnight. The dried extracts were resuspended in 20 μl of aqueous 50% methanol, clarified by centrifugation (17,000×g, 20 min, room temperature), and analyzed by LC-HRMS. […]

[4] abbreviates: CAR T cells cocultured with Eμ-myc cells without macrophages.
[5] abbreviates: cocultures of CAR T cells and Eμ-myc cells with imMac.

Consider `N=C(NO)NCC[C@H](N)C(=O)O` [nor-NOHA], for which the “CAR T cell expansion” value with CAR T cells [1] (cocultures with imMac, physiological arginine concentration (150 μM)) is “failed to rescue CAR T cell expansion”; in the assay on CAR T cells [1] (cocultures with imMac, supraphysiological arginine concentration (1.15 mM)), “did not restore CAR T cell expansion”.

In the case of `NC(=O)NCCC[C@H](N)C(=O)O` [citrulline], in the assay with CAR T cells [1] (setting [4]), the “CAR T cell expansion” value is reported as “did not impact expansion of CAR T cells”.

As to `C=C(CC(=O)OCCCCCCCC)C(=O)O` [4-OI, 4-octyl itaconate], the “CAR T cell expansion” value in the assay on CAR T cells [1] (setting [4]) is “impaired CAR T cell expansion”.

Regarding `CC(=N)NCCCC[C@H](N)C(=O)O` [L-NIL, L-N6-(1-Iminoethyl)-lysine], the “CAR T cell expansion” value in the assay with CAR T cells [1] (setting [5]) is recorded as “complete rescue of CAR T cell expansion”. Also, the “survival of tumor-bearing mice” value in the assay on Eμ-myc B cell tumors is recorded as “significantly improved survival”. Besides, the “capacity of CAR T cells to kill (lyse) tumor cells” value in the assay on Eμ-myc cells (CAR T cells isolated after 48 h initial coculture with imMac, then cocultured with fresh Eμ-myc cells, 24 h) is given as “preserved the capacity of CAR T cells to kill tumor cells”. Moreover, the “production of effector cytokines IFN-γ and TNF-α by CAR T cells” value in the assay with IFN-γ and TNF-α (CAR T cells isolated after 48 h initial coculture with imMac, then cocultured with fresh Eμ-myc cells) is “preserved”. Further, in the assay on CAR T cells [2], the “glycolytic and oxidative metabolic capabilities of CAR T cells (ECAR, OCR)” value is “preserved glycolytic and oxidative metabolic capabilities of CAR T cells”. The “depletion of F1,6BP, G3P and DHAP in CAR T cells cocultured with imMac” value in the assay with CAR T cells [3] is listed as “reversal”.

As to `O=NOO` [PNT, peroxynitrite], the “CAR T cell expansion” value with CAR T cells [1] (setting [4]) is on record as “inhibition of CAR T cell expansion”. Further, the “ability of CAR T cells to kill tumor cells” value in the assay with Eμ-myc cells is listed as “diminished ability of CAR T cells to kill tumor cells”. In addition, the “secretion of effector cytokines IFN-γ and TNF-α by CAR T cells” value with IFN-γ and TNF-α is on record as “diminished”.

Regarding `CC(=O)Oc1ccccc1C(=O)Oc1cccc(CO[N+](=O)[O-])c1` [NCX-4016], in the assay with CAR T cells [1] (setting [4]), the “CAR T cell expansion” value is given as “inhibition of CAR T cell expansion”. Moreover, the “ability of CAR T cells to kill tumor cells” value with Eμ-myc cells was “diminished ability of CAR T cells to kill tumor cells”. Further, the “secretion of effector cytokines IFN-γ and TNF-α by CAR T cells” value in the assay on IFN-γ and TNF-α is “diminished”.

Regarding `CC1(C)N([O])C(c2ccc(C(=O)O)cc2)=[N+]([O-])C1(C)C` [c-PTIO, carboxyl-PTIO], the “CAR T cell expansion” value in the assay on CAR T cells [1] (setting [5]) is “partially rescued expansion of CAR T cells”.

(Values after US20260083844A1, “DOWNREGULATING INOS TO INCREASE CAR-T KILLING” (H. LEE MOFFITT CANCER CENTER AND RESEARCH INSTITUTE INC., priority 2022, published 2026).)
